# Legend:
# Type in all cases: biochemical
# Conditions in all cases: read-out: 100 μM Inhibition rate %
# PxGSTσ2 = PxGSTσ2 (Plutella xylostella, UniProt Q6F443); experiment: Inhibition of PxGSTσ2 recombinant protein
# Experimental: (§1) Experiment: 100 μL of PBS buffer (100 mM, pH 7.2) was taken and added to a 96-well plate, 1 μg of PxGSTs recombinant protein and an appropriate concentration of the compounds PXG1-PXG29 of the present invention were added to each well, after uniformly mixing, and allowed to stand at 30° C. for 10 min. Then 100 μL of PBS buffer (100 mM, pH 7.2) containing 1 mM CDNB and 1 mM GSH was successively added to each well. Immediately after mixing, the mixture was placed in a microplate reader to measure the absorbance at a wavelength of 340 nm (A340) once every 1 min, the measurement was continued for 5 min, the light absorption values of each measuring point were recorded and the inhibition rate in vitro of the compounds PXG1-PXG29 of the present invention with different concentrations against PxGSTs recombinant protein were calculated. Each group of assays was repeated three times, and PxGSTs recombinant protein inactivated at 100° C. for 5 min was used as negative control, and GTX was used as positive control. GraphPad Prism 5 software was used for analysis and calculation of IC50. Relative inhibition was calculated using the following formula:
# (§2) [formula] • wherein, A340c is the change of A340 […] the control group, an A340t is the change of A340 within 5 minutes for the experimental group.
# PxGSTσ1 = PxGSTσ1 (Plutella xylostella, UniProt Q6F436); experiment: Inhibition of PxGSTσ1 recombinant protein
# Sequence of PxGSTσ1 (Q6F436 entry or part of it): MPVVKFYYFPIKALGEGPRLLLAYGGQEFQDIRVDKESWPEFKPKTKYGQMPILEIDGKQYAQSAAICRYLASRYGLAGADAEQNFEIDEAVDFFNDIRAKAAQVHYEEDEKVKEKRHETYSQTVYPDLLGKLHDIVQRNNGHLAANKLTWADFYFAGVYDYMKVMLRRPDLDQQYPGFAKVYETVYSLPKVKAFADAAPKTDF
# Experimental: as §1, §2
# PxGSTε3 = PxGSTε3 (Plutella xylostella, UniProt O77409); experiment: Inhibition of PxGSTε3 recombinant protein
# Sequence of PxGSTε3 (O77409 entry or part of it): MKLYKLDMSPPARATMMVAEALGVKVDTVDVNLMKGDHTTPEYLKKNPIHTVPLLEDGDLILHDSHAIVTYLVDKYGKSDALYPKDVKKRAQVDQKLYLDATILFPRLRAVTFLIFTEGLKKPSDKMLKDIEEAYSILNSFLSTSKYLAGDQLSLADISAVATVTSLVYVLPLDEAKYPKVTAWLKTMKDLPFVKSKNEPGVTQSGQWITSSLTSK
# Experimental: as §1, §2
# PxGSTδ1 = PxGSTδ1 (Plutella xylostella, UniProt D7URW9); experiment: Inhibition of PxGSTδ1 recombinant protein
# Sequence of PxGSTδ1 (D7URW9 entry or part of it): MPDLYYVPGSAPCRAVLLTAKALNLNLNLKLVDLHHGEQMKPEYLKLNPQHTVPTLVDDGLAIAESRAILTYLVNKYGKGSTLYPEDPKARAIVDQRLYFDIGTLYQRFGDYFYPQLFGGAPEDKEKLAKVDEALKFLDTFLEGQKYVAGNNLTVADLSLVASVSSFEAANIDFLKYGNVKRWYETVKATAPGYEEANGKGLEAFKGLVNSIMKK
# Experimental: as §1, §2
# Sequence of PxGSTσ2 (Q6F443 entry or part of it): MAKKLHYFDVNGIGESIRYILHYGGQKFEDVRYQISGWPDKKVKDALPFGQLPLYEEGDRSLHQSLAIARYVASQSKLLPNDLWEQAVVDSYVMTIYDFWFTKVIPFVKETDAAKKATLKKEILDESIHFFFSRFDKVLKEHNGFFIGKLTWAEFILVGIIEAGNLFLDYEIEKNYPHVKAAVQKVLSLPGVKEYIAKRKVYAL
Compound,inhibition at 100 µM (PxGSTσ2) [%],inhibition at 100 µM (PxGSTσ1) [%],inhibition at 100 µM (PxGSTε3) [%],inhibition at 100 µM (PxGSTδ1) [%]
"O=C(NNC(=O)C1CCCC1)c1cc(-c2ccccc2)nn1-c1ccccc1 [PXG28, N′-(1,3-diphenyl-1H-pyrazol-5-yl-carbonyl) cyclopentyl carbohydrazide]",23.4,19.5,0.96,70.9
"COc1cccc(C2(C)NC(=O)N(NC(=O)c3cc(-c4ccccc4)nn3-c3ccccc3)C2=O)c1 (centres unmarked) [PXG17, N-[4-(3-methoxyphenyl)-4-methyl-2,5-dioxaimidazolin-1-yl]-1,3-diphenyl-1H-pyrazol-5-yl-carboxamide]",43.9,48.9,4.43,2.22
"O=C(NNC(=O)c1cc(-c2ccc(Cl)cc2)nn1-c1ccccc1)c1ccccn1 [PXG20, N′-[3-(4-chlorophenyl)-1-phenyl-1H-pyrazol-5-yl-carbonyl]pyridin-2-yl-carbohydrazide]",29.6,71.8,-15.7,23
"CCOC(=O)NNC(=O)c1cc(-c2ccccc2)nn1-c1ccccc1 [PXG24, N′-(ethoxycarbonyl)-1,3-diphenyl-1H-pyrazol-5-yl-carbohydrazide]",19.7,14.9,28.3,23.1
"CCC1(C)NC(=O)N(NC(=O)c2cc(-c3ccccc3)nn2-c2ccccc2)C1=O (centres unmarked) [PXG13, N-(4-ethyl-4-methyl-2,5-dioxaimidazolin-1-yl)-1,3-diphenyl-1H-pyrazol-5-yl-carboxamide]",22.8,34.2,18.4,14.1
"COc1ccc(C2(C)NC(=O)N(NC(=O)c3cc(-c4ccccc4)nn3-c3ccccc3)C2=O)cc1 (centres unmarked) [PXG14, N-[4-(4-methoxyphenyl)-4-methyl-2,5-dioxaimidazolin-1-yl]-1,3-diphenyl-1H-pyrazol-5-yl-carboxamide]",36.4,52.2,15.3,14.9
"O=C(NNC(=O)c1cc(-c2ccc(Cl)cc2)nn1-c1ccccc1)c1cccnc1 [PXG7, N′-[3-(4-chlorophenyl)-1-phenyl-1H-pyrazol-5-yl-carbonyl]pyridin-3-yl-carbohydrazide]",20.1,35.1,5.93,55.7
"O=C(NNC(=O)c1cc(-c2ccccc2)nn1-c1ccccc1)c1cccnc1O [PXG25, N′-(1,3-diphenyl-1H-pyrazol-5-yl-carbonyl)-2-hydroxypyridin-3-yl-carbohydrazide]",15.3,-1.47,2.07,23.8
"CCn1c(C)nc2cc(C(=O)NNC(=O)c3cc(-c4ccccc4)nn3-c3ccccc3)ccc21 [PXG21, N′-(1-ethyl-2-methyl-1H-1,3-benzodiazol-5-yl-carbonyl)-1,3-diphenyl-1H-pyrazol-5-yl-carbohydrazide]",11.7,44.9,-2.67,7.82
"O=C(NNC(=O)[C@@H]1COc2ccccc2O1)c1cc(-c2ccccc2)nn1-c1ccccc1 [PXG8, (2S)-N′-(1,3-diphenyl-1H-pyrazol-5-yl-carbonyl)-2,3-dihydro-1,4-benzodioxin-2-yl-carbohydrazide]",42.4,37.8,-3.3,69.5
"O=C(NNC(=O)c1cc(-c2ccccc2)nn1-c1ccccc1)c1ccc(=O)[nH]n1 [PXG27, N′-(1,3-diphenyl-1H-pyrazol-5-yl-carbonyl)-6-oxo-1,6-dihydropyridazin-3-yl-carbohydrazide]",42.4,25.1,17.6,41.7

# Source: US12617771B2, “Diphenylpyrazole compound, and preparation method therefor and application thereof” (NORTHWEST A&F UNIVERSITY, priority 2021, dated 2026)
